Source: ChEMBL document CHEMBL4840373, “Aureonitol Analogues and Orsellinic Acid Esters Isolated from Chaetomium elatum and Their Antineuroinflammatory Activity” (J Nat Prod, 2021)
Activity calls are given as the source filed them. The rule behind the calls is not given here.

Experiments:
[1] = system: BV-2; experiment: Cytotoxicity against mouse BV-2 cells assessed as reduction in cell viability at 120 uM after 24 hrs by MTT assay; assay type: cell-based; details: bv-2, 24 h
[2] = system: BV-2; experiment: Antiinflammatory activity against mouse BV-2 cells assessed as inhibition of LPS-induced TNFalpha production at 15 to 60 uM pretreated with compound for 1 hr followed by LPS stimulation for 24 hrs by ELISA; assay type: functional, cell-based; details: dose 15-60 µM, time 25.0 hrs
[3] = system: BV-2; experiment: Antiinflammatory activity against mouse BV-2 cells assessed as inhibition of LPS-induced IL-6 production at 15 to 60 uM pretreated with compound for 1 hr followed by LPS stimulation for 24 hrs by ELISA; assay type: functional, cell-based; details: dose 15-60 µM, time 25.0 hrs
[4] = system: BV-2; experiment: Antiinflammatory activity against mouse BV-2 cells assessed as inhibition of LPS-induced IL-1beta production at 15 to 60 uM pretreated with compound for 1 hr followed by LPS stimulation for 24 hrs by ELISA; assay type: functional, cell-based; details: dose 15-60 µM, time 25.0 hrs
[5] = system: BV-2; experiment: Antiinflammatory activity against mouse BV-2 cells assessed as inhibition of LPS-induced ROS production at 15 to 60 uM pretreated with compound for 1 hr followed by LPS stimulation for 24 hrs by DCFH-DA staining based fluorescence microscopy; assay type: functional, cell-based; details: dose 15-60 µM, time 25.0 hrs
[6] = system: BV-2; experiment: Antiinflammatory activity against LPS-induced mouse BV-2 cells assessed as decrease in iNOS protein expression at 15 to 60 uM pretreated with compound for 1 hr followed by LPS stimulation after 24 hrs by Western blot analysis; assay type: functional, cell-based; details: dose 15-60 µM, time 25.0 hrs
[7] = system: BV-2; experiment: Antiinflammatory activity against LPS-induced mouse BV-2 cells assessed as decrease in COX2 protein expression at 15 to 60 uM pretreated with compound for 1 hr followed by LPS stimulation after 24 hrs by Western blot analysis; assay type: functional, cell-based; details: dose 15-60 µM, time 25.0 hrs
[8] = system: BV-2; experiment: Antiinflammatory activity against LPS-induced mouse BV-2 cells assessed as inhibition of TLR-4 protein expression at 15 to 60 uM pretreated with compound for 1 hr followed by LPS stimulation after 24 hrs by Western blot analysis; assay type: functional, cell-based; details: dose 15-60 µM, time 25.0 hrs
[9] = system: BV-2; experiment: Antiinflammatory activity against LPS-induced mouse BV-2 cells assessed as inhibition of NFkB protein expression at 15 to 60 uM pretreated with compound for 1 hr followed by LPS stimulation after 24 hrs by Western blot analysis; assay type: functional, cell-based; details: dose 15-60 µM, time 25.0 hrs
[10] = biological target: T1, Inhibitor of nuclear factor kappa-B kinase subunit beta (Mus musculus) (UniProt O88351); experiment: Inhibition of IKappaB phosphorylation in LPS-stimulated mouse BV-2 cells at 15 to 60 uM pretreated with compound for 1 hr followed by LPS stimulation for 24 hrs by Western blot analysis; assay type: cell-based; details: dose 15-60 µM, time 25.0 hrs
T1 sequence (whole entry): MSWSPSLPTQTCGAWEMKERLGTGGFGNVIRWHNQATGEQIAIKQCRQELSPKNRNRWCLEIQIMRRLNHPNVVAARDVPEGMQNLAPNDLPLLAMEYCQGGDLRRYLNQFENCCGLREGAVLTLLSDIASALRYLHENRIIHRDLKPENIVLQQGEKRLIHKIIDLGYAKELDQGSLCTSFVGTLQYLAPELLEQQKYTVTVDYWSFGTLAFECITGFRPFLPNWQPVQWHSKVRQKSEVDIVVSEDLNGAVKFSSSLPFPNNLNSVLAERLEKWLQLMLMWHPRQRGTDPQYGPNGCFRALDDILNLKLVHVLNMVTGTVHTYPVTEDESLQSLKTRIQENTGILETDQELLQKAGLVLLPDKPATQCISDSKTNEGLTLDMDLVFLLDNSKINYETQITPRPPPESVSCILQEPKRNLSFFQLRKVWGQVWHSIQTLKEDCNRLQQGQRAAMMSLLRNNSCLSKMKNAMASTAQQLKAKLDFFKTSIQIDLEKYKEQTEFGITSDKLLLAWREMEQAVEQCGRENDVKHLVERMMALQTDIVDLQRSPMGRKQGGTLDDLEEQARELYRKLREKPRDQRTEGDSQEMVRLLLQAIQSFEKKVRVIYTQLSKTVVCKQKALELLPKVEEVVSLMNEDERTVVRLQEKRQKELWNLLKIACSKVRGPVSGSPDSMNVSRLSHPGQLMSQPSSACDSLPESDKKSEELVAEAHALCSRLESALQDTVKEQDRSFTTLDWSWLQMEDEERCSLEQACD

[11] = biological target: MAP kinase p38 (Mus musculus) (UniProt P47811+O08911+Q9WUI1+Q9Z1B7); experiment: Inhibition of p38 phosphorylation in LPS-stimulated mouse BV-2 cells at 15 to 60 uM pretreated with compound for 1 hr followed by LPS stimulation for 24 hrs by Western blot analysis; assay type: cell-based; details: dose 15-60 µM, time 25.0 hrs
[12] = system: BV-2; experiment: Antiinflammatory activity in mouse BV-2 cells assessed as inhibition of LPS-induced NO production pretreated with compound for 1 hr followed by LPS stimulation for 24 hrs by Griess reagent based assay; assay type: functional, cell-based
[13] = system: BV-2; experiment: Antiinflammatory activity in mouse BV-2 cells assessed as inhibition of LPS-induced NO production at 15 uM pretreated with compound for 1 hr followed by LPS stimulation for 24 hrs by Griess reagent based assay; assay type: functional, cell-based; details: time 25.0 hrs

Compound	Activity [1]	inhibition [13]	other results
C=C/C=C/[C@@H]1OC[C@@H](/C=C/C=C/C)[C@@H]1O	Non-Toxic	–	–
Cc1cc(O)cc(O)c1C(=O)OCC(=O)[C@@H](O)[C@H](C)O [GLOBOSUMONE C]	Non-Toxic	–	–
C/C=C/C=C/[C@H]1CO[C@@H](/C=C/[C@H](O)CO)[C@@H]1O	Non-Toxic	–	Activity [2]: Active; Activity [3]: Active; Activity [4]: Active; Activity [5]: Active; Activity [6]: Active; Activity [7]: Active; inhibition [8]: Active; inhibition [9]: Active; inhibition [10]: Active; inhibition [11]: Active; IC50 [12]: 16.6 µM
C=C/C=C/[C@@H]1OC[C@H](/C=C/[C@@H](O)[C@@H](C)O)[C@H]1O	Non-Toxic	–	–
C/C=C/C=C/[C@H]1CO[C@@H](/C=C/[C@@H](O)CO)[C@@H]1O	Non-Toxic	Active	–
Cc1cc(O)cc(O)c1C(=O)OC[C@@]1(C[C@@H](C)O)C[C@@H](O)C(=O)O1	Non-Toxic	–	–
C=C/C=C/[C@@H]1OC[C@H](/C=C/C[C@H](C)O)[C@H]1O	Non-Toxic	Active	–
C=C/C=C/[C@@H]1OC[C@H](/C=C/C=C/C)[C@H]1O	Non-Toxic	–	–
C=C/C=C/[C@@H]1OC[C@H](/C=C/[C@@H](O)[C@H](C)O)[C@H]1O	Non-Toxic	–	–
C=C/C=C/[C@H]1OC[C@@H]([C@@H](O)/C=C/[C@@H](C)O)[C@@H]1O	Non-Toxic	Active	–
